Assay results published in article PMC7822874, “Chemoprotective antimalarials identified through quantitative high-throughput screening of Plasmodium blood and liver stage parasites” (Scientific Reports, 2021).
Entries after “also recorded” stand apart in the source; their conditions may differ. Like-named read-outs stand apart in the source and are kept apart here.

Experiments:
[1] = system: P. falciparum Dd2 Cytb G131S; experiment: SYBR Green ABS proliferation assay, NCGC00374598 selected clone C11; assay type: cell-based, Plasmodium falciparum
In short: (§1)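 Proliferation of cytb-mutant Dd2 clones was measured by SYBR Green-I fluorescence at 72 h, normalized to controls.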

[2] = system: P. falciparum Dd2 Cytb F123L; experiment: SYBR Green ABS proliferation assay, NCGC00473217 selected clone G08; assay type: cell-based, Plasmodium falciparum
In short: as §1

[3] = system: luciferase-expressing P. berghei liver stage parasites in HepG2 cells; experiment: Inhibition of liver-stage development assay (ILSDA), Method 2 (WRAIR, 96-well); assay type: cell-based, Plasmodium berghei; conditions: for AC50: Plasmodium berghei
[4] = system: P. berghei-ANKA-GFP-LucCON liver stage parasites in HepG2-A16-CD81EGFP cells; experiment: P. berghei liver stage Pb-Luc assay, Method 1 (UCSD, 1536-well); assay type: cell-based, Plasmodium berghei; conditions: Plasmodium berghei; for AC50: UCSD, read-out: liver stage AC50 (Method 1)
[5] = system: P. falciparum Dd2 (clone B2) asexual blood stage parasites; experiment: P. falciparum Dd2 asexual blood stage SYBR Green-I 72 h proliferation assay (qHTS); assay type: cell-based, Plasmodium falciparum
[6] = system: P. falciparum Dd2-B2 parasites; experiment: In vitro resistance selection under constant drug pressure; assay type: cell-based, Plasmodium falciparum; conditions: for Recrudescence under pressure: 2 × 10^9 parasites, 5 × AC50 (NCGC00473217) or 3 × AC50 (NCGC00374598); for AC50 increase of selected clones: clones from selections with the same compound
Method: Recently cloned P. falciparum Dd2-B2 parasites, cultured in duplicate flasks each harboring an inoculum of 2 × 10^9 parasites, were subjected to constant drug pressure from NCGC00473217 at 5 × AC50 or NCGC00374598 at 3 × AC50. […] Clones were then obtained by limiting dilution and three to four clones from each flask were expanded for profiling and sequencing.
Fresh uninfected RBCs (0.5% hematocrit) were added on day 7 and media was changed every other day. […] Resistant parasites were maintained under drug media at a volume of 50 mL until a high parasitemia (> 5%) was achieved. Aliquots of the bulk resistant cultures were frozen in cryovials before cloning by limiting dilution in 96-well plates (seeded at 0.25 or 0.5 parasites/well)[70]. After 3 weeks of cloning, we screened for positive wells by flow cytometry with SYBR Green-stained cells. […] Parasites were harvested by saponin lysis at the trophozoite stage and genomic DNA was extracted using the QIAamp DNA Blood Midi Kit (Qiagen, Germantown, MD)[71].

[7] = system: P. falciparum Dd2 Cytb V259L; experiment: SYBR Green ABS proliferation assay, NCGC00473217 selected clone F06; assay type: cell-based, Plasmodium falciparum
In short: as §1

HepG2 cells = experiment: HepG2 mammalian toxicity, CellTiter-Glo, 48 h; conditions: 48 h compound exposure
in vitro [8] = conditions: human; for AC50 at 48 h: HepG2 cells, HepG2 AC50 (mammalian cellular toxicity), 48 h compound exposure
in vitro [9] = conditions: for half-life: rat
Method: (§2) Pharmacokinetic modeling experiments, parallel artificial membrane permeability assay (PAMPA), solubility, and rat liver microsome stability assessment were performed on all synthetic compounds, as previously described[73]–[75].

[10] = system: P. falciparum Dd2 Cytb A122D; experiment: SYBR Green ABS proliferation assay, NCGC00473217 selected clone F12; assay type: cell-based, Plasmodium falciparum
In short: as §1

[11] = system: P. falciparum Dd2 cytochrome b mutant lines; experiment: Drug response of drug-selected cytochrome b mutant lines versus parental Dd2-B2 (panel); assay type: cell-based, Plasmodium falciparum; conditions: all cytochrome b mutant lines vs Dd2-B2
Method: As resistance selection studies implicated the parasite cytochrome bc1 complex in mediating reduced parasite susceptibility to both NCGC00473217 and NCGC00374598, we leveraged these drug-selected parasites to test for altered drug response to a panel of antimalarial compounds.
The P. falciparum parasite Dd2 line was cultured in vitro using standard conditions. […] Tissue culture flasks and assay plates were incubated at 37 °C under a gas mixture of 5% CO2, 5% O2 and 90% N2. […] Significant differences were assessed using two-sided Student’s t-tests. All HTS assays were stopped and read at 72 h. Percent response values represent relative growth as judged by SYBR Green-I fluorescence intensity values normalized to controls.

[12] = Parallel artificial membrane permeability assay (PAMPA); assay type: in vitro ADME; conditions: for PAMPA pH7.4: pH 7.4
Method: as §2

Aqueous solubility = assay type: physicochemical; conditions: for solubility: aqueous media
Method: as §2

in vitro [13] = conditions: human, HepG2-A16-CD81EGFP cells, uninfected
[14] = Plasmodium falciparum, DD2, NCGC00374598 selected clone, read-out: AC50 Log[M] ± SD, Cytb G131S (converted)
[15] = Plasmodium falciparum, DD2, Suppl Table 6, read-out: AC50 (mM), Dd2 Cytb G131S
[16] = Plasmodium falciparum, DD2, NCGC00473217 selected clone, read-out: AC50 Log[M] ± SD, Cytb F123L (converted)
[17] = Plasmodium falciparum, DD2, Suppl Table 6, read-out: AC50 (mM), Dd2 Cytb F123L
[18] = Plasmodium falciparum, DD2, 72 h, SYBR Green 72 h, WT Dd2-B2, read-out: AC50 Log[M] ± SD, Dd2-B2 (parental line) (converted)
[19] = Plasmodium falciparum, DD2, 72 h, SYBR Green 72 h, approximate value in μM, read-out: AC50 [μM], Dd2-B2 (parental line) (converted)
[20] = Plasmodium falciparum, DD2, Suppl Table 6, read-out: AC50 (mM), WT (Dd2-B2)
[21] = Plasmodium falciparum, DD2, NCGC00473217 selected clone, read-out: AC50 Log[M] ± SD, Cytb V259L (converted)
[22] = Plasmodium falciparum, DD2, Suppl Table 6, read-out: AC50 (mM), Dd2 Cytb V259L
[23] = Plasmodium falciparum, DD2, NCGC00473217 selected clone, read-out: AC50 Log[M] ± SD, Cytb A122D (converted)
[24] = Plasmodium falciparum, DD2, Suppl Table 6, read-out: AC50 (mM), Dd2 Cytb A122D
[25] = Plasmodium falciparum, DD2, NCGC00374598 selected clone C11, read-out: AC50 [μM], Cytb G131S (converted)
[26] = Plasmodium falciparum, DD2, NCGC00473217 selected clone G08, highest concentration 29 µM, read-out: AC50 [μM], Cytb F123L (converted)
[27] = HepG2, 48 h, 48 h, firefly luciferase reporter P. berghei line, read-out: ILSDA AC50
[28] = HepG2, 48 h, 48 h, read-out: ILSDA AC50 (Method 2)
[29] = SYBR Green 72 h, approximate value in μM
[30] = Plasmodium falciparum, DD2, NCGC00473217 selected clone F06, read-out: AC50 [μM], Cytb V259L (converted)
[31] = Plasmodium falciparum, DD2, NCGC00473217 selected clone F12, read-out: AC50 [μM], Cytb A122D (converted)

SMILES	AC50 [1, 14]	AC50 [1, 15]	AC50 [2, 16]	AC50 [2, 17]	AC50 [5, 18]	AC50 [5, 19]	AC50 [5, 20]	AC50 [7, 21]	AC50 [7, 22]	HepG2 AC50 (mammalian cellular toxicity) (HepG2 cells)	AC50 [10, 23]	AC50 [10, 24]	change in susceptibility across drug-selected lines [11]	AC50 [1, 25]	PAMPA pH7.4 [12]	AC50 [2, 26]	AC50 [3, 27]	AC50 [7, 30]	half-life (in vitro [9]; rat liver microsomes)	AC50 [10, 31]	further results
CC(=O)Nc1ccc(CN2CCc3nc(C(C)C)nc(-c4ccc(Cl)cc4)c3CC2)cc1 [NCGC00374598]	3.47e-06 M	3.47e-06 M	3.89e-07 M	3.89e-07 M	1.58e-06 M	1.5e-06 M	1.51e-06 M	2.82e-06 M	2.82e-06 M	no apparent toxicity	2.09e-06 M	2.09e-06 M	–	–	–	–	–	–	–	–	Max Resp (signal direction of the dose response) ([3]; Method 2, Decrease = decreasing P. berghei viability with dose, Increase = increasing signal, Inactive = no dose response): Inactive; AC50 ([3]; HepG2, mean, read-out: liver stage AC50 (Method 2)): 500 nM; AC50 [4]: 710 nM; inhibition at 1 µM [4]: > 60%; inhibition at 3 µM [4]: > 90%; AC50 ([5]; SYBR Green 72 h, approximate value in μM, read-out: AC50 [μM], Dd2-B2 (parental line) (converted)): 1.51e-06 M; Recrudescence under pressure [6]: 36 days; AC50 increase of selected clones [6]: threefold increase; AC50 (in vitro [8]): > 20000 nM; half-life (in vitro [9]; microsomes): 4 min
COc1cc2[nH]c(C)c(-c3ccc(Oc4ccc(OC(F)(F)F)cc4)cc3)c(=O)c2cc1Cl [ELQ-300, reference compound]	–	–	–	–	–	–	–	–	–	–	–	–	no observed change in susceptibility	–	–	–	–	–	–	–	AC50 Log[M] ± SD, Cytb G131S ([1]; NCGC00374598 selected clone): -7.16 Log[M]; AC50 ([1]; Suppl Table 6, read-out: AC50 (mM), Dd2 Cytb G131S): 6.93e-08 M; AC50 Log[M] ± SD, Cytb F123L ([2]; NCGC00473217 selected clone): -7.68 Log[M]; AC50 ([2]; Suppl Table 6, read-out: AC50 (mM), Dd2 Cytb F123L): 2.11e-08 M; AC50 Log[M] ± SD, Dd2-B2 (parental line) ([5]; SYBR Green 72 h, WT Dd2-B2): -7.13 Log[M]; AC50 ([5]; Suppl Table 6, read-out: AC50 (mM), WT (Dd2-B2)): 7.5e-08 M; AC50 Log[M] ± SD, Cytb V259L ([7]; NCGC00473217 selected clone): -7.06 Log[M]; AC50 ([7]; Suppl Table 6, read-out: AC50 (mM), Dd2 Cytb V259L): 8.73e-08 M; AC50 Log[M] ± SD, Cytb A122D ([10]; NCGC00473217 selected clone): -7.39 Log[M]; AC50 ([10]; Suppl Table 6, read-out: AC50 (mM), Dd2 Cytb A122D): 4.06e-08 M
CO[C@H]1O[C@@H]2O[C@@]3(C)CC[C@H]4[C@H](C)CC[C@@H]([C@H]1C)[C@@]24OO3 [Artemether, artemether, reference compound]	3.24e-08 M	3.22e-08 M	3.63e-08 M	3.61e-08 M	5.13e-08 M	–	5.11e-08 M	6.61e-08 M	6.68e-08 M	–	6.61e-08 M	6.68e-08 M	no observed change in susceptibility	–	–	–	–	–	–	–	–
CCN(CC)Cc1cc(Nc2ccnc3cc(Cl)ccc23)ccc1O [Amodiaquine, amodiaquine, reference compound]	4.9e-08 M	4.91e-08 M	5.5e-08 M	5.51e-08 M	4.68e-08 M	–	4.73e-08 M	7.24e-08 M	7.21e-08 M	–	6.61e-08 M	6.68e-08 M	no observed change in susceptibility	–	–	–	–	–	–	–	–
CCCN1C(c2ccccc2)=NS(=O)(=O)c2cc(NC(=O)c3ccc(F)cc3)ccc21 [NCGC00532331]	7.08e-07 M	–	3.31e-06 M	–	8.91e-07 M	8.94e-07 M	–	2.34e-06 M	–	Neither compound was cytotoxic	1.86e-06 M	–	–	7.1e-07 M	896 1e-6 cm/s	3.3e-06 M	48 nM	2.33e-06 M	> 30 min	1.85e-06 M	AC50 [μM], Cytb G131S ([1]; NCGC00374598 selected clone C11): maintained potency; PAMPA permeability [12]: good PAMPA permeability; also recorded: favorable; AC50 [3, 28]: < 50 nM; AC50 [μM], Dd2-B2 (parental line) [5, 29]: sub-micromolar; AC50 at 48 h (in vitro [8]): > 20000 nM; RLMS T1/2 (in vitro [9]; rat liver microsomes): favorable; Aqueous Solubility (Aqueous solubility): poor aqueous solubility; solubility (Aqueous solubility): < 1 µg/mL
CCCN1C(c2ccccc2)=NS(=O)(=O)c2cc(NC(=O)c3cccs3)ccc21 [NCGC00532332]	8.51e-07 M	–	2e-06 M	–	5.89e-07 M	5.86e-07 M	–	4.27e-06 M	–	Neither compound was cytotoxic	1.51e-06 M	–	–	8.61e-07 M	714 1e-6 cm/s	2e-06 M	39 nM	4.31e-06 M	22.6 min	1.5e-06 M	PAMPA permeability [12]: high permeability; also recorded: favorable; AC50 [3, 28]: < 50 nM; AC50 [μM], Dd2-B2 (parental line) [5, 29]: sub-micromolar; AC50 at 48 h (in vitro [8]): > 20000 nM; RLMS T1/2 (in vitro [9]; rat liver microsomes): favorable; Aqueous Solubility (Aqueous solubility): poor aqueous solubility; solubility (Aqueous solubility): < 1 µg/mL
CCCN1C(CC(C)C)=NS(=O)(=O)c2cc(NC(=O)c3cccs3)ccc21 [NCGC00473217]	6.76e-07 M	6.76e-07 M	–	> 2.9e-05 M	2.19e-07 M	2.19e-07 M	–	1.17e-06 M	1.17e-06 M	–	2.82e-06 M	2.82e-06 M	–	6.8e-07 M	222 1e-6 cm/s	> 2.9e-05 M	112 nM	1.18e-06 M	5 min	2.82e-06 M	AC50 [μM], Cytb F123L ([2]; NCGC00473217 selected clone G08, highest concentration 29 µM): greater than the maximum concentration tested; AC50 ([2]; NCGC00473217 selected clone G08, highest concentration 29 µM, read-out: AC50 [μM], Cytb F123L (converted)): > 2.9e-05 M; IC50 shift, F123L clone ([2]; versus parental): > 500 fold; Activity direction (Decrease / Inactive) ([3]; P. berghei liver stage, Method 2, dose response): Decrease; AC50 ([3]; HepG2, P. berghei liver stage, Method 2, dose response, read-out: Log AC50 (converted)): 112 nM; AC50 [4]: 3 nM; inhibition at 1 µM [4]: > 90%; inhibition at 3 µM [4]: > 95%; Recrudescence under pressure [6]: 14 to 17 days; AC50 increase of selected clones [6]: 10 to 60 fold; viability at 66 h (in vitro [13]): 106%; solubility (Aqueous solubility): < 1 µg/mL
